From ChEMBL document CHEMBL1201862, “PubChem BioAssay data set” (2004)
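Protocol summary: plate cells (96-well), add compound at 5 concentrations, incubate 48 h, interpolate endpoints linearly. At the GI50, growth is halved.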 Calls of active or inactive are those of the source. No stated cut-off is given here; in the data, active = GI50 up to about 1.1 µM and inactive = higher.

Columns and labels:
Experiment in all cases: DTP human tumour cell line panel, 48 h
ACHN = tested on: ACHN
CCRF-CEM = tested on: CCRF-CEM
EKVX = tested on: EKVX
HL-60 = tested on: HL-60
K562 = tested on: K562
NCI-H460 = tested on: NCI-H460
OVCAR-3 = tested on: OVCAR-3
SF-268 = tested on: SF-268
SF-295 = tested on: SF-295
SNB-19 = tested on: SNB-19
SNB-75 = tested on: SNB-75
SW-620 = tested on: SW-620
TK-10 = tested on: TK-10
U-251 = tested on: U-251
NCI-H522 = tested on: NCI-H522
UACC-62 = tested on: UACC-62

Measured: GI50

Cc1cccc(C)c1NC(=O)CCCC(=O)C1CCC/C1=N\NC(=O)C(=O)NN (stereo not given)
inactive: ACHN > 100 µM | CCRF-CEM > 100 µM | EKVX > 100 µM | HL-60 > 100 µM | K562 > 100 µM | NCI-H460 > 100 µM | OVCAR-3 > 100 µM | SF-268 > 100 µM | SF-295 > 100 µM | SNB-19 > 100 µM | SNB-75 > 100 µM | SW-620 > 100 µM | TK-10 > 100 µM | U-251 > 100 µM

NC(=S)N/N=C1/C(=O)N(c2ccccc2)C(=O)C1C(=O)Nc1ccccc1 (stereo not given)
inactive: ACHN > 100 µM | EKVX > 100 µM | HL-60 > 100 µM | NCI-H460 > 100 µM | NCI-H522 > 100 µM | OVCAR-3 > 100 µM | SF-268 > 100 µM | SF-295 > 100 µM | SNB-19 > 100 µM | SNB-75 > 100 µM | SW-620 > 100 µM | TK-10 > 100 µM | U-251 > 100 µM | UACC-62 > 100 µM

N#CC1C[C@@H]2CC3(CCC2CN1C(=O)c1ccccc1)OCCO3 (stereo not given in full)
inactive: ACHN > 100 µM | CCRF-CEM > 100 µM | EKVX > 100 µM | HL-60 > 100 µM | K562 > 100 µM | NCI-H460 > 100 µM | OVCAR-3 > 100 µM | SF-268 > 100 µM | SF-295 > 100 µM | SNB-19 > 100 µM | SNB-75 > 100 µM | SW-620 > 100 µM | TK-10 > 100 µM | U-251 > 100 µM | UACC-62 > 100 µM

COc1ccccc1C1c2cc3c(cc2OC(O)(CO)C1C(=O)O)OCO3.COc1ccccc1C1c2cc3c(cc2OC2(O)COC(=O)C12)OCO3 (stereo not given)
inactive: ACHN > 100 µM | CCRF-CEM 92.7 µM | EKVX > 100 µM | HL-60 95.1 µM | K562 > 100 µM | NCI-H460 > 100 µM | OVCAR-3 > 100 µM | SF-268 > 100 µM | SF-295 > 100 µM | SNB-75 26.9 µM | SW-620 > 100 µM | TK-10 > 100 µM | U-251 > 100 µM | UACC-62 > 100 µM

CN1CC(=O)N2Cc3ccccc3-n3cccc3C2C1 (stereo not given)
inactive: ACHN > 100 µM | EKVX > 100 µM | NCI-H460 > 100 µM | OVCAR-3 > 100 µM | SF-268 > 100 µM | SF-295 > 100 µM | SNB-19 > 100 µM | SNB-75 > 100 µM | SW-620 > 100 µM | TK-10 > 100 µM | U-251 > 100 µM | UACC-62 > 100 µM

CC(=O)OCC(OC(C)=O)C(OC(C)=O)C(OC(C)=O)C(=O)CNn1c(-c2ccccc2)nc2ccc(Br)cc2c1=O (stereo not given)
inactive: ACHN > 100 µM | CCRF-CEM > 100 µM | EKVX > 100 µM | HL-60 > 100 µM | K562 > 100 µM | NCI-H460 > 100 µM | NCI-H522 46.8 µM | OVCAR-3 > 100 µM | SF-268 > 100 µM | SF-295 > 100 µM | SNB-19 > 100 µM | SNB-75 > 100 µM | SW-620 > 100 µM | U-251 > 100 µM | UACC-62 83.4 µM

CCCC(=O)CC(C)C(=O)C(=O)NC12CC3CC(CC(C3)C1)C2 (stereo not given)
inactive: ACHN > 100 µM | CCRF-CEM > 100 µM | EKVX > 100 µM | HL-60 > 100 µM | K562 > 100 µM | NCI-H460 > 100 µM | NCI-H522 > 100 µM | OVCAR-3 > 100 µM | SF-268 > 100 µM | SF-295 > 100 µM | SNB-19 > 100 µM | SNB-75 97.5 µM | SW-620 > 100 µM | TK-10 > 100 µM | U-251 > 100 µM

O=c1cc(-c2ccccc2)[nH]c2c(F)ccc(F)c12
inactive: ACHN > 100 µM | CCRF-CEM > 100 µM | HL-60 31.8 µM | K562 30.3 µM | NCI-H460 32.5 µM | NCI-H522 27.7 µM | SF-268 > 100 µM | SF-295 33 µM | SNB-75 15 µM | SW-620 35.3 µM | TK-10 61.9 µM | U-251 41.4 µM | UACC-62 30.7 µM

O=C(NCCCCCCCCCCCCNC(=O)c1cnc2ccccc2n1)c1cnc2ccccc2n1
inactive: ACHN 44.3 µM | CCRF-CEM > 100 µM | EKVX > 100 µM | HL-60 > 100 µM | K562 > 100 µM | NCI-H460 48.1 µM | NCI-H522 19 µM | OVCAR-3 34.7 µM | SF-268 > 100 µM | SF-295 37 µM | SNB-19 14.8 µM | SNB-75 20.8 µM | SW-620 > 100 µM | U-251 28.8 µM | UACC-62 > 100 µM

CCOc1cc2c(cnc3c4cc(OC)c(OC)cc4ccc23)cc1OC
inactive: ACHN > 100 µM | CCRF-CEM > 100 µM | EKVX > 100 µM | K562 > 100 µM | NCI-H460 > 100 µM | NCI-H522 > 100 µM | OVCAR-3 > 100 µM | SF-268 > 100 µM | SF-295 > 100 µM | SNB-19 > 100 µM | SNB-75 > 100 µM | SW-620 > 100 µM | TK-10 > 100 µM | U-251 > 100 µM | UACC-62 > 100 µM

CCOC(=O)/C=C/c1ccccn1
inactive: ACHN > 100 µM | CCRF-CEM > 100 µM | EKVX > 100 µM | HL-60 > 100 µM | K562 > 100 µM | NCI-H460 > 100 µM | NCI-H522 > 100 µM | SF-268 > 100 µM | SF-295 > 100 µM | SNB-75 > 100 µM | SW-620 > 100 µM | TK-10 > 100 µM | U-251 > 100 µM | UACC-62 > 100 µM

COc1ccc(NC(=O)CC(=O)N2N=C(N(CCC#N)c3cccc(C)c3)CC2c2ccccc2)cc1 (stereo not given)
inactive: ACHN > 100 µM | CCRF-CEM > 100 µM | EKVX > 100 µM | HL-60 > 100 µM | K562 > 100 µM | NCI-H460 > 100 µM | NCI-H522 > 100 µM | OVCAR-3 > 100 µM | SF-268 > 100 µM | SF-295 > 100 µM | SNB-19 > 100 µM | SNB-75 > 100 µM | SW-620 > 100 µM | U-251 > 100 µM | UACC-62 > 100 µM

CC(=O)Nc1ccc(/C=C2\N=C(c3ccccc3)OC2=O)cc1
inactive: ACHN > 100 µM | CCRF-CEM 33.1 µM | EKVX > 100 µM | HL-60 76.7 µM | K562 > 100 µM | NCI-H460 68.5 µM | SF-268 > 100 µM | SF-295 65.2 µM | SNB-19 > 100 µM | SNB-75 64.9 µM | SW-620 > 100 µM | TK-10 > 100 µM | U-251 > 100 µM | UACC-62 27.2 µM

O=C1CCCCC1C1(O)C(=O)Nc2cc(F)ccc21 (stereo not given)
inactive: ACHN > 100 µM | CCRF-CEM > 100 µM | EKVX > 100 µM | HL-60 > 100 µM | K562 > 100 µM | NCI-H460 > 100 µM | NCI-H522 > 100 µM | SF-268 > 100 µM | SF-295 > 100 µM | SNB-19 > 100 µM | SNB-75 > 100 µM | SW-620 > 100 µM | TK-10 > 100 µM | U-251 > 100 µM | UACC-62 > 100 µM
